“Also recorded” adds a separate entry of the source. Ends that are not written are not given here.
B1: recombinant murine interleukin 12 (protein, UniProt P43431 23-215; P43432 23-335, looked up)
Interleukin-12 subunit alpha: RVIPVSGPARCLSQSRNLLKTTDDMVKTAREKLKHYSCTAEDIDHEDITRDQTSTLKTCLPLELHKNESCLATRETSSTTRGSCLPPQKTSLMMTLCLGSIYEDLKMYQTEFQAINAALQNHNHQQIILDKGMLVAIDELMQSLNHNGETLRQKPPVGEADPYRVKMKLCILLHAFSTRVVTINRVMGYLSSA
Interleukin-12 subunit beta: MWELEKDVYVVEVDWTPDAPGETVNLTCDTPEEDDITWTSDQRHGVIGSGKTLTITVKEFLDAGQYTCHKGGETLSHSHLLLHKKENGIWSTEILKNFKNKTFLKCEAPNYSGRFTCSWLVQRNMDLKFNIKSSSSSPDSRAVTCGMASLSAEKVTLDQRDYEKYSVSCQEDVTCPTAEETLPIELALEARQQNKYENYSTSFFIRDIIKPDPPKNLQMKPLKNSQVEVSWEYPDSWSTPHSYFSLKFFVRIQRKKEKMKETEEGCNQKGAFLVEKTSTEVQCKGGNVCVQAQDRYYNSSCSKWACVPCRVRS

How the values were obtained:
HLA-A2 [1] = biological target: T1, HLA-A2 (Homo sapiens, UniProt P04439); assay: HLA-A2 stabilization assay on T2 cells; type: binding; details: MA2.1
T1 construct: peptide stabilization read with MA2.1 by flow cytometry
T1 sequence (P04439 25-365): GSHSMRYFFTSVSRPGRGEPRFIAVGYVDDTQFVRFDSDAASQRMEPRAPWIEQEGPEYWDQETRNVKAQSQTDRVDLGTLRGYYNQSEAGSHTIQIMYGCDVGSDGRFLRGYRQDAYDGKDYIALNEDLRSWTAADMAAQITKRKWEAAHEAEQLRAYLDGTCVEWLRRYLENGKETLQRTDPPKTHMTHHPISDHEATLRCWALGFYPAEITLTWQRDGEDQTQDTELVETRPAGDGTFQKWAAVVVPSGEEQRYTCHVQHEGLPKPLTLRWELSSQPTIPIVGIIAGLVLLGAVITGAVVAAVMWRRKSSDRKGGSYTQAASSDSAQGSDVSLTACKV
T1 sequence (P61769 21-119 partner): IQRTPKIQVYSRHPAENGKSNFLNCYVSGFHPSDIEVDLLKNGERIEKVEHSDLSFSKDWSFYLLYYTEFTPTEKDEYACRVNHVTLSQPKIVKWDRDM

Mel 624 [2] = assay: induction of anti-melanoma CTL from melanoma patient PBMC by peptide-pulsed autologous DC, lysis of Mel 624; type: cell-based, human; details: for Patient PBL Response (responders/patients): lysis of Mel 624 >20% at E:T 10:1, >80% inhibited by BB7.2
Source text: Heparinized peripheral blood was obtained by venipuncture from 15 HLA-A2^+ normal donors and 10 HLA-A2^+ donors with AJCC Stage III or IV melanoma treated at the University of Pittsburgh Cancer Institute/University of Pittsburgh School of Medicine. Peripheral blood mononuclear cells ("PBMC") were obtained after density centrifugation on Ficoll-Hypaque gradients per the manufacturer's protocol (LSM, Organon-Teknika, Durham, N.C.). […] Non-adherent cells were frozen in liquid nitrogen in 90% fetal bovine serum/10% DMSO and were retained as T cell enriched responder populations. Plastic adherent cells were cultured for 5-7 days in AIM-V medium supplemented with 1000 U rIL-4/ml+1000 U rGM-CSF/ml at 37° C., 5% CO2 and served as the source of autologous dendritic cells. No medium was added or removed during this culture period. […] Gradient interface cells were harvested, washed with HBSS, and used in phenotypic and functional assays, as outlined below. Cells generated in this way were determined to be greater than 90% DC based on morphology and the expression of a CD1a+, CD1b+, CD1c+, CD3-, CD14-, CD16-, CD20-, CD40+, CD80+, CD83+, CD86+, MHC class II+phenotype assessed by flow cytometry.
(§1) Plastic non-adherent DC (1-2×10^6) were harvested from IL-4+GM-CSF cultures on days 7, 14, 21, and 28, and washed twice with HBSS. […] Peptide-pulsing (10 μM final peptide concentration) was allowed to proceed for 2 hours at 37° C., at which time, the cells were washed twice with HBSS, resuspended in 1 ml of AIM-V and irradiated (2500 rad) using a cesium source. Day 7 peptide-pulsed DC were used to "prime" freshly-thawed, autologous PBMC (plastic adherent depleted) responders at a 20:1 responder-to-stimulator ratio. Responding T cells were restimulated weekly (for 4 weeks) using irradiated, peptide-pulsed autologous DC at a 20:1 responder-to-restimulator ratio in AIM-V medium containing 60 IU/ml rhIL-2 (Chiron, Emeryville, Calif.).
(§2) Four hour chromium release assays were performed as described previously. Target cells were labeled with 100 μCi (Na2^51 CrO4, Dupont-New England Nuclear, Bedford, Mass.) at 37° C. for 1-2 hours prior to being washed three times with HBSS. 10^4 51 Cr-labeled cells were added to each target well±effector cells for 4 h, 37° C., 5% CO2 in a total volume of 200 μl.
Autologous, cultured d7 IL-4+GM-CSF PB-DC were pulsed with the indicated peptides for 2h at room temperature prior to washing and use as stimulators for CTL induction in vitro. […] 12 HLA-A2+ normal donors and 10 HLA-A2+ patients with metastatic melanoma were screened.
In parallel experiments, PBMC derived from 10 patients diagnosed with AJCC stage III or IV melanoma were stimulated with autologous DC pulsed with these same series of peptides.

Mel 624 [3] = assay: induction of anti-melanoma CTL from normal donor PBMC by peptide-pulsed autologous DC, lysis of Mel 624; type: cell-based, human; details: for Normal PBL Response (responders/donors): lysis of Mel 624 >20% at E:T 10:1, >80% inhibited by BB7.2; for Peak week of CTL reactivity, Normal PBL / number of stimulations to induce anti-melanoma CTL: normal donors; for lysis of Mel 624 by induced anti-melanoma CTL: E:T 10:1, normal donors
Procedure: Peripheral blood mononuclear cells ("PBMC") were obtained after density centrifugation on Ficoll-Hypaque gradients per the manufacturer's protocol (LSM, Organon-Teknika, Durham, N.C.). […] Non-adherent cells were frozen in liquid nitrogen in 90% fetal bovine serum/10% DMSO and were retained as T cell enriched responder populations. Plastic adherent cells were cultured for 5-7 days in AIM-V medium supplemented with 1000 U rIL-4/ml+1000 U rGM-CSF/ml at 37° C., 5% CO2 and served as the source of autologous dendritic cells. No medium was added or removed during this culture period. […] Gradient interface cells were harvested, washed with HBSS, and used in phenotypic and functional assays, as outlined below. Cells generated in this way were determined to be greater than 90% DC based on morphology and the expression of a CD1a+, CD1b+, CD1c+, CD3-, CD14-, CD16-, CD20-, CD40+, CD80+, CD83+, CD86+, MHC class II+phenotype assessed by flow cytometry.
as §1, §2
PBMC responder T cells derived from normal donors (n=12) were repetitively stimulated weekly for 1-4 weeks with irradiated, autologous cultured dendritic cells pre-pulsed with either no peptide or individually pulsed with the previously identified, HLA-A2-presented melanoma peptides listed in Table 9, below.
Autologous, cultured d7 IL-4+GM-CSF PB-DC were pulsed with the indicated peptides for 2h at room temperature prior to washing and use as stimulators for CTL induction in vitro. […] 12 HLA-A2+ normal donors and 10 HLA-A2+ patients with metastatic melanoma were screened. […] Peak week of CTL reactivity is noted in parentheses.

T2 target cells = assay: CTL lysis of p939-pulsed T2 target cells; type: cell-based, human; details: without exogenous β2 -m and MA2.1
Procedure: (§3) Peptide loading was facilitated by the presence of the β2 -m and MA2.1 reagents as described by Zeh, H. J., et al., Hum. […] The cells were then incubated for 2 hours at room temperature.

CTL clone A42 = details: CTL clone A42, data not shown
TIL 5403 = details: TIL 5403, data not shown
A42-clone = details: read-out: half-maximal sensitization for lysis, T2, E:T 10:1
Procedure: as §3

TIL 1235 = details: TIL 1235, data not shown
GL1 CTL = type: cell-based, human
HLA-A2 [4] = biological target: T1, HLA-A2; details: reported by Cox et al.; cited from earlier work
MCA205 fibrosarcoma = assay: in vivo therapy of established MCA205 tumors in C57BL/6 mice; set-up: species or system mouse; details: day 4 (but not day 8) tumor models
Procedure: Before being used in vaccines, DC were pulsed overnight with crude, unfractionated, acid-eluted peptides derived from relevant tumors or control syngeneic spleens. Peptide-pulsed DC were extensively washed and then irradiated (3,000 rads) before i.v. injection in the tail vein of tumor-bearing animals. In the fibrocarcinoma MCA205 and mammary adenocarcinoma TS/A tumor models, animals were injected three to four times, starting at day 4 or day 8 after tumor establishment and subsequently, every 4 days, with 3-5×10^5 DC pulsed with peptides. Alternatively, in the C3 tumor model, animals were injected on days 14, 21, and 28 after initial intradermal (i.d.) tumor inoculation.
1 million BM-DC were pulsed with peptides derived from 10^8 to 10^9 cells (tumor or spleen) in a total volume of 1-2 ml of DC media overnight at 37° C., 55 CO2. Splenocytes freshly harvested from B6 animals were used as a cellular source of irrelevant peptides.
Twice the minimal tumorigenic dose of tumor cells (2×10^5 MCA205, 10^5 TS/A, or 2×10^6 C3) were injected intradermally ("i.d.") in the right flank of mice. […] The mean tumor size was monitored biweekly. […]
50 μg of CTLA4-IgG1 was admixed with DC-MCA205 or DC-TS/A in vitro, and the mixture was then administered in the tail vein of tumor-bearing animals (three to four injections every 4 days). […] Depletion of CD4^+ and CD8^+ T cells was monitored by flow cytometry. […]

Molecule | HLA-A2 stabilization / binding (HLA-A2 [1]) | Patient PBL Response (responders/patients) (Mel 624 [2]) | Peak week of CTL reactivity, Patient PBL (Mel 624 [2]; melanoma patients) | Normal PBL Response (responders/donors) (Mel 624 [3]) | Peak week of CTL reactivity, Normal PBL (Mel 624 [3]) | further results
Asp-Gly-Leu-Ala-Pro-Pro-Gln-His-Leu-Ile-Arg (DGLAPPQHLIR) [p53 186-196] | stabilized HLA-A2 very poorly |  |  |  |  | 
FLWGPRALV [MAGE-3] |  | 1/3 | 3 wk | 0/4 |  | 
ILTVILGVL [p939] | less effective; also recorded: low affinity | 9/10 | 3-4 wk | 9/12 | 3-4 wk | CTL reactivity over background (T2 target cells): 5-10%; lowest dose with peptide-specific release of interferon-γ (CTL clone A42): 1 pM; recognition and lysis of peptide-pulsed T2 cells (TIL 5403): able to recognize and lyse T2 cells; EC50 (A42-clone): ~3 nM; lowest dose with peptide-specific release of interferon-γ (TIL 1235): 1 pM
LLDGTATLRL [gp100 457-466] |  | 0/10 |  | 0/12 |  | 
Lys-Gly-Ile-Leu-Gly-Phe-Val-Phe--Thr-Leu-Thr-Val [Flu M1] |  |  |  |  |  | GL1 lysis of peptide-pulsed HLA-A2+ targets (GL1 CTL): lysed
MLLAVLYCL [Tyrosinase 1-9] |  | 0/10 |  | 1/12 |  | 
Tyr-Leu-Glu-Pro-Gly-Pro-Val-Thr-Ala [gp100 280-288] | comparable | 8/10 | 3-4 wk | 9/12 | 3-4 wk | immunodominance by kinetics and magnitude of response (Mel 624 [2]; melanoma patients): immunodominant epitopes; lysis of Mel 624 by induced anti-melanoma CTL (Mel 624 [3]): greater than 20%; number of stimulations to induce anti-melanoma CTL (Mel 624 [3]): 2-3 stimulations; binding to HLA-A2 (HLA-A2 [4]): intermediate-to-low affinity
YMDGTMSQV [Tyrosinase 368-376] |  | 6/10 |  | 7/12 | 3-4 wk | lysis of Mel 624 by induced anti-melanoma CTL (Mel 624 [3]): greater than 20%; number of stimulations to induce anti-melanoma CTL (Mel 624 [3]): 2-3 stimulations
B1 |  |  |  |  |  | therapeutic effect alone (MCA205 fibrosarcoma): beneficial therapeutic effect

From patent US6077519A, “Methods for isolation and use of T cell epitopes eluted from viable cells in vaccines for treating cancer patients” (University of Pittsburgh, priority 1997, dated 2000)
